Test results taken from ChEMBL document CHEMBL1201862, “PubChem BioAssay data set” (2004).
Counter-ions that a name gives are not always drawn.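 A five-concentration, 48-hour dose response in 96-well plates underlies each endpoint, interpolated linearly between surrounding concentrations. GI50: concentration for 50% inhibition of growth.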 Activity calls are given as the source filed them. Rule as the data show it: active = GI50 up to about 1.1 µM and inactive = higher.

How the values were obtained:
Assay in all cases: NCI-60 cell line screen, 48 h
[1] = tested on: CAKI-1
[2] = tested on: 786-0
[3] = tested on: UO-31
[4] = tested on: TK-10
[5] = tested on: SK-MEL-28
[6] = tested on: COLO 205
[7] = tested on: OVCAR-5
[8] = tested on: SW-620
[9] = tested on: XF498
[10] = tested on: Malme-3M
[11] = tested on: HOP-18
[12] = tested on: HOP-92
[13] = tested on: SNB-75
[14] = tested on: DMS-114
[15] = tested on: KM-20L2
[16] = tested on: SK-OV-3
[17] = tested on: MOLT-4
[18] = tested on: UACC-257
[19] = tested on: HL-60
[20] = tested on: OVCAR-3
[21] = tested on: NCI-H226
[22] = tested on: HT-29
[23] = tested on: SK-MEL-2
[24] = tested on: HCT-116
[25] = tested on: RPMI-8226
[26] = tested on: K562
[27] = tested on: EKVX
[28] = tested on: OVCAR-8
[29] = tested on: LXFL 529
[30] = tested on: SN12C
[31] = tested on: M19-MEL
[32] = tested on: UACC-62
[33] = tested on: SR
[34] = tested on: ACHN
[35] = tested on: LOX IMVI
[36] = tested on: SF-268
[37] = tested on: M14
[38] = tested on: CCRF-CEM
[39] = tested on: DLD-1
[40] = tested on: SNB-78
[41] = tested on: NCI-H522
[42] = tested on: SF-539
[43] = tested on: RXF 393
[44] = tested on: OVCAR-4
[45] = tested on: NCI-H23
[46] = tested on: SF-295
[47] = tested on: HCT-15
[48] = tested on: NCI-H460
[49] = tested on: DMS-273
[50] = tested on: HOP-62
[51] = tested on: KM12
[52] = tested on: SNB-19
[53] = tested on: U-251
[54] = tested on: SK-MEL-5
[55] = tested on: HCC 2998
[56] = tested on: A549
[57] = tested on: IGROV-1
[58] = tested on: A498

Oc1ccccc1-c1cnnc(-c2ccccc2O)c1
GI50 [1]: 28.6 µM (inactive)
GI50 [2]: 17.9 µM (inactive)
GI50 [3]: 19.7 µM (inactive)
GI50 [4]: 28.7 µM (inactive)
GI50 [5]: 35.6 µM (inactive)
GI50 [6]: 22 µM (inactive)
GI50 [7]: 28.6 µM (inactive)
GI50 [8]: 37.7 µM (inactive)
GI50 [9]: 16.2 µM (inactive)
GI50 [10]: 33.6 µM (inactive)
GI50 [11]: 22.1 µM (inactive)
GI50 [12]: 24 µM (inactive)
GI50 [13]: 20.4 µM (inactive)
GI50 [14]: 15 µM (inactive)
GI50 [15]: 43.5 µM (inactive)
GI50 [16]: 43.5 µM (inactive)
GI50 [17]: 18.1 µM (inactive)
GI50 [18]: 25.1 µM (inactive)
GI50 [19]: 19.8 µM (inactive)
GI50 [20]: 19 µM (inactive)
GI50 [21]: 42 µM (inactive)
GI50 [22]: 26.5 µM (inactive)
GI50 [23]: 20.5 µM (inactive)
GI50 [24]: 20.1 µM (inactive)
GI50 [25]: 16.7 µM (inactive)
GI50 [26]: 7.73 µM (inactive)
GI50 [27]: 24.1 µM (inactive)
GI50 [28]: 22.6 µM (inactive)
GI50 [29]: 21.5 µM (inactive)
GI50 [30]: 30.3 µM (inactive)
GI50 [31]: 27.4 µM (inactive)
GI50 [32]: 17.5 µM (inactive)
GI50 [33]: 19 µM (inactive)
GI50 [34]: 27.7 µM (inactive)
GI50 [35]: 20.3 µM (inactive)
GI50 [36]: 38.2 µM (inactive)
GI50 [37]: 22.2 µM (inactive)
GI50 [38]: 13.4 µM (inactive)
GI50 [39]: 30.6 µM (inactive)
GI50 [40]: 33.3 µM (inactive)
GI50 [41]: 17.7 µM (inactive)
GI50 [42]: 33.9 µM (inactive)
GI50 [43]: 20.3 µM (inactive)
GI50 [44]: 29.9 µM (inactive)

CCOP(=O)(OCC)/C(C#N)=C\c1ccsc1
GI50 [1]: > 100 µM (inactive)
GI50 [2]: > 100 µM (inactive)
GI50 [3]: > 100 µM (inactive)
GI50 [4]: > 100 µM (inactive)
GI50 [45]: > 100 µM (inactive)
GI50 [5]: > 100 µM (inactive)
GI50 [6]: > 100 µM (inactive)
GI50 [7]: > 100 µM (inactive)
GI50 [8]: > 100 µM (inactive)
GI50 [9]: > 100 µM (inactive)
GI50 [10]: > 100 µM (inactive)
GI50 [11]: > 100 µM (inactive)
GI50 [12]: > 100 µM (inactive)
GI50 [13]: > 100 µM (inactive)
GI50 [14]: > 100 µM (inactive)
GI50 [15]: > 100 µM (inactive)
GI50 [46]: > 100 µM (inactive)
GI50 [16]: > 100 µM (inactive)
GI50 [47]: > 100 µM
GI50 [17]: > 100 µM (inactive)
GI50 [48]: > 100 µM (inactive)
GI50 [18]: > 100 µM (inactive)
GI50 [20]: > 100 µM (inactive)
GI50 [21]: > 100 µM (inactive)
GI50 [22]: > 100 µM (inactive)
GI50 [23]: > 100 µM (inactive)
GI50 [24]: > 100 µM (inactive)
GI50 [49]: > 100 µM (inactive)
GI50 [25]: > 100 µM (inactive)
GI50 [27]: > 100 µM (inactive)
GI50 [28]: > 100 µM (inactive)
GI50 [29]: > 100 µM (inactive)
GI50 [30]: > 100 µM (inactive)
GI50 [50]: > 100 µM (inactive)
GI50 [31]: > 100 µM (inactive)
GI50 [32]: > 100 µM (inactive)
GI50 [51]: > 100 µM (inactive)
GI50 [52]: > 100 µM (inactive)
GI50 [34]: > 100 µM (inactive)
GI50 [35]: > 100 µM (inactive)
GI50 [53]: > 100 µM (inactive)
GI50 [36]: > 100 µM (inactive)
GI50 [54]: > 100 µM (inactive)
GI50 [37]: > 100 µM (inactive)
GI50 [39]: > 100 µM (inactive)
GI50 [40]: > 100 µM (inactive)
GI50 [41]: > 100 µM (inactive)
GI50 [42]: > 100 µM (inactive)
GI50 [43]: > 100 µM (inactive)
GI50 [44]: > 100 µM (inactive)
GI50 [55]: > 100 µM (inactive)
GI50 [56]: > 100 µM (inactive)

COc1ccc2cc3[n+](cc2c1OC)CCc1cc2c(cc1-3)OCO2 [BERBERINE SULFATE]
GI50 [2]: 51.5 µM (inactive)
GI50 [4]: > 100 µM (inactive)
GI50 [45]: 8.34 µM (inactive)
GI50 [5]: 19.3 µM (inactive)
GI50 [7]: > 91.8 µM (inactive)
GI50 [8]: 30.1 µM (inactive)
GI50 [9]: 14 µM (inactive)
GI50 [10]: 9.62 µM (inactive)
GI50 [12]: 23.6 µM (inactive)
GI50 [13]: 27.5 µM (inactive)
GI50 [14]: 4.33 µM (inactive)
GI50 [15]: 30.8 µM (inactive)
GI50 [16]: > 80.9 µM (inactive)
GI50 [48]: 17.9 µM (inactive)
GI50 [19]: 14 µM (inactive)
GI50 [22]: 32.6 µM (inactive)
GI50 [57]: 36 µM (inactive)
GI50 [23]: 15.5 µM (inactive)
GI50 [49]: 17.2 µM (inactive)
GI50 [26]: 14.1 µM (inactive)
GI50 [58]: > 100 µM (inactive)
GI50 [28]: 18.1 µM (inactive)
GI50 [29]: 4.37 µM (inactive)
GI50 [31]: 7.6 µM (inactive)
GI50 [32]: 17.8 µM (inactive)
GI50 [51]: 4.88 µM (inactive)
GI50 [52]: 8.13 µM (inactive)
GI50 [35]: 43.1 µM (inactive)
GI50 [36]: 6.15 µM (inactive)
GI50 [54]: 5.07 µM (inactive)
GI50 [37]: 32.5 µM (inactive)
GI50 [38]: 10.5 µM (inactive)
GI50 [40]: 34.4 µM (inactive)
GI50 [42]: 33.8 µM (inactive)
